From US10472364B2 (Calithera Biosciences, Inc., priority 2016, dated 2019) come the findings set out here.

One may read the IC50 as the concentration that inhibits the measured activity by half.

Assay [1] has as its target recombinant CD73 (Homo sapiens (Human), UniProt P21589). The experiment in a line: Inhibition of the CD73 enzyme in vitro (soluble recombinant CD73, Malachite Green). To be noted: recombinant CD73 0.5 nM, AMP 50 μM, 30 minutes at room temperature. The class given is biochemical. As to the method: The concentration of inorganic phosphate was determined using a phosphate standard curve.

The target of assay [2] is endogenous, cell-bound CD73 on SK-MEL-28 cells (Homo sapiens (Human), UniProt P21589). Description: Inhibition of endogenous, cell-bound CD73 enzyme activity in SK-MEL-28 cells (Malachite Green). The class given is cell-based. The note with it: 100 μM AMP, 30 minutes at room temperature. As to the method:
The day before the experiment, 5000 cells were plated per well in a 96-well plate. Cells were washed twice with […] reaction buffer (20 mM HEPES, pH 7.4, 125 mM NaCl, 1 mM KCl, 2 mM MgCl2, 10 mM glucose) to remove residual inorganic phosphate. After washing, assays contained serial dilutions of test compounds and 100 μM of AMP in a total volume of 200 μL reaction buffer, with a final DMSO concentration≤0.5%. After 30 minutes at room temperature, supernatant was removed from the cells. […] The concentration of inorganic phosphate was determined using a phosphate standard curve to determine IC50.

Where only a bound is given, the exact number is not on record here.

Sequence of recombinant CD73 (P21589 27-547): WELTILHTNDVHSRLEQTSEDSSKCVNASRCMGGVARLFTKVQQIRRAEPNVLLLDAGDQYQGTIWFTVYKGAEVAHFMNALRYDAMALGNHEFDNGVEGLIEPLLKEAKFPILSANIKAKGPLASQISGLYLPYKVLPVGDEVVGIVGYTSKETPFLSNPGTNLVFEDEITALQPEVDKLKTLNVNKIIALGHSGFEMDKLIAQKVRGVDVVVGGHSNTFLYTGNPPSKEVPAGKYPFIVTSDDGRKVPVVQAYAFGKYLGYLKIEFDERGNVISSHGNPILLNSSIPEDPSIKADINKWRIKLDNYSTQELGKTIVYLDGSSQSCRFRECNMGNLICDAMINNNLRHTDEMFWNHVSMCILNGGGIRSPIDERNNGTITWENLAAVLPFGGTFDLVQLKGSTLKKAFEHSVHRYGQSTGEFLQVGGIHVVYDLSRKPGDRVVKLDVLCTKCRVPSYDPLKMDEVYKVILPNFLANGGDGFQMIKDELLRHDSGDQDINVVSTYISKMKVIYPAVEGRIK
Sequence of endogenous, cell-bound CD73 on SK-MEL-28 cells (P21589 27-574): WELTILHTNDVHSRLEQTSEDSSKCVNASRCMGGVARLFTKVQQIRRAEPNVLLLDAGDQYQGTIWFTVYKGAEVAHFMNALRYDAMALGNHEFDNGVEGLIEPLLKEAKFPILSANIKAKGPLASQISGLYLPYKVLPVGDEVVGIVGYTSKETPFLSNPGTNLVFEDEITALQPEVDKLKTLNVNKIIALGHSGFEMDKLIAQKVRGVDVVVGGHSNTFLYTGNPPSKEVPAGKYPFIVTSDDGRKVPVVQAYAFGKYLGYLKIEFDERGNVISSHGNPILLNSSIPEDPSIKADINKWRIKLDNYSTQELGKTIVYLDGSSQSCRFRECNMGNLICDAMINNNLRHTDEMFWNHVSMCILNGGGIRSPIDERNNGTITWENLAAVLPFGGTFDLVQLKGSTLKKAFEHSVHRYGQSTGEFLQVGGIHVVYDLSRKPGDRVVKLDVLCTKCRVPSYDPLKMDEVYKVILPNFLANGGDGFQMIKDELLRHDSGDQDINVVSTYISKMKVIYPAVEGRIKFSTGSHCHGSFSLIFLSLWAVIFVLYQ

Consider `Nc1nc(Cl)nc2c1ncn2[C@@H]1O[C@H](COC(Cc2ccc(C(=O)O)cc2)(C(=O)O)C(=O)O)[C@@H](O)[C@@H]1F` [compound 7, 2-(((2R,3R,4S,5R)-5-(6-amino-2-chloro-9H-purin-9-yl)-4-fluoro-3-hydroxytetrahydro-furan-2-yl)methoxy)-2-(4-carboxybenzyl)-malonic acid], for which the figures for the IC50 in assay [1] and in assay [2] were 121 nM and 257 nM, respectively.
On to `Cc1cn([C@H]2C[C@H](O)[C@@H](COC(C(=O)O)C(=O)O)O2)c(=O)[nH]c1=O` [compound 14, 2-(((2R,3S,5R)-3-hydroxy-5-(5-methyl-2,4-dioxo-3,4-dihydropyrimidin-1(2H)-yl)tetrahydrofuran-2-yl)methoxy)malonic acid], for which the IC50 in assay [1] is above 50000 nM.
Turning to `Cn1nc(CC(OC[C@H]2O[C@@H](n3cnc4c(N)nc(Cl)nc43)[C@@H](F)[C@@H]2O)(C(=O)O)C(=O)O)cc1C(=O)O` [compound 73, 2-(((2R,3R,4S,5R)-5-(6-amino-2-chloro-9H-purin-9-yl)-4-fluoro-3-hydroxytetrahydrofuran-2-yl)methoxy)-2-((5-carboxy-1-methyl-1H-pyrazol-3-yl)methyl)malonic acid], the IC50 is 8610 nM in assay [1] and 1240 nM in assay [2].
In the case of `Nc1nc(Cl)nc2c1ncn2[C@@H]1O[C@H](COC(Cc2ccc3oc(C(=O)O)cc3c2)(C(=O)O)C(=O)O)[C@@H](O)[C@@H]1F` [compound 88, 2-(((2R,3R,4S,5R)-5-(6-amino-2-chloro-9H-purin-9-yl)-4-fluoro-3-hydroxytetrahydro-furan-2-yl)methoxy)-2-((2-carboxybenzofuran-5-yl)methyl)malonic acid], the IC50 in assay [2] was determined as 443 nM.
Same read-out and setting: for `Nc1nc(Cl)nc2c1ncn2[C@@H]1O[C@H](COC(Cc2ccc(OCC(F)(F)F)cc2)(C(=O)O)C(=O)O)[C@@H](O)[C@@H]1F` [compound 89, 2-(((2R,3R,4S,5R)-5-(6-amino-2-chloro-9H-purin-9-yl)-4-fluoro-3-hydroxytetrahydrofuran-2-yl)methoxy)-2-(4-(2,2,2-trifluoroethoxy)benzyl)malonic acid] the value was 70 nM.
In the case of `COC(=O)c1ccc(CC(OC[C@H]2O[C@@H](n3cnc4c(N)nc(Cl)nc43)[C@@H](F)[C@@H]2O)(C(=O)O)C(=O)O)cc1` [compound 91, 2-(((2R,3R,4S,5R)-5-(6-amino-2-chloro-9H-purin-9-yl)-4-fluoro-3-hydroxytetrahydrofuran-2-yl)methoxy)-2-(4-(methoxycarbonyl)benzyl)malonic acid], the IC50 in assay [1] turned out to be 322 nM.
The molecule `Nc1nc(Cl)nc2c1ncn2[C@@H]1O[C@H](COC(Cc2ccc(OCC(=O)O)cc2)(C(=O)O)C(=O)O)[C@@H](O)[C@@H]1F` [compound 92, 2-(((2R,3R,4S,5R)-5-(6-amino-2-chloro-9H-purin-9-yl)-4-fluoro-3-hydroxytetrahydrofuran-2-yl)methoxy)-2-(4-(carboxymethoxy)benzyl)malonic acid] displayed an IC50 in assay [2] of 202 nM.
